Eight compounds from ChEMBL document CHEMBL3045424, “Synthesis and antimalarial activity evaluation of some isoquine analogues” (2011) can be followed below.

The structures appear in SMILES notation.

One test has as its system Plasmodium falciparum. Put plainly: Antimalarial activity against chloroquine-sensitive Plasmodium falciparum 3D7 infected O positive human red blood cells assessed as dead rings and schizonts at 0.4 ug/ml after 40 hr by Giemsa staining. Format: functional.
For the compound `CCN(CC)CCCC(C)Nc1ccnc2cc(Cl)ccc12` (stereo not drawn) [CHLOROQUINE], the Activity came out at 68.5%.

The subject of a further test is Plasmodium falciparum. Put plainly: Antimalarial activity against chloroquine-sensitive Plasmodium falciparum 3D7 infected O positive human red blood cells assessed as dead rings and schizonts at 50 ug/ml after 40 hr by Giemsa staining. Format: functional.
Regarding `Oc1cc(Nc2ccnc3cc(Cl)ccc23)ccc1CNc1ccc(Br)cc1F`, the Activity amounted to 6.5%.
Same read-out and setting: for `O=C(O)c1ccc(NCc2ccc(Nc3ccnc4cc(Cl)ccc34)cc2O)cc1` the value was 34%.
On the same count and under the same terms, the value for `OCCNCc1ccc(Nc2ccnc3cc(Cl)ccc23)cc1O` was 36.5%; that for `Oc1ccc(NCc2ccc(Nc3ccnc4cc(Cl)ccc34)cc2O)cc1` was 28.5%.
On the same count and under the same terms, the value for `Oc1cc(Nc2ccnc3cc(Cl)ccc23)ccc1CNC1CCNCC1` was 33%; that for `NC(=O)NCc1ccc(Nc2ccnc3cc(Cl)ccc23)cc1O` was 24%; that for `Oc1cc(Nc2ccnc3cc(Cl)ccc23)ccc1CNc1ccc(F)cc1` was 25.5%.
